Measurements reported in patent US20210178009A1, “WOUND CARE PRODUCTS COMPRISING ALEXIDINE” (TELEFLEX MEDICAL INCORPORATED, priority 2015, published 2021).

Assays:
Assay in all cases: Time to kill comparison
Format in all cases: cell-based
Staphylococcus aureus = conditions: 128 ppm; for exposure time to complete kill: S. aureus, challenge 10^4-10^5 CFU/mL; for Number of Microbial Colonies: Staphylococcus aureus, 5 replicates, TNTC = too numerous to count
Procedure: (§1) Alexidine and Chlorhexidine, both at a concentration of 128 ppm were exposed to a Gram positive bacteria (Staphylococcus aureus), a Gram negative bacteria (Pseudomonas aeruginosa), and a fungus (Candida albicans). The challenge concentration for each organism was 10^4-10^5 CFU/mL, and the exposure time varied from 0.5-60 minutes. […] Complete kill of all three organisms was observed within 0.5-1 minute of Alexidine exposure.

Pseudomonas aeruginosa = conditions: P. aeruginosa, 128 ppm, challenge 10^4-10^5 CFU/mL
Procedure: as §1

Candida albicans = conditions: 128 ppm; for exposure time to complete kill: C. albicans, challenge 10^4-10^5 CFU/mL; for Number of Microbial Colonies: Candida albicans, 5 replicates, TNTC = too numerous to count
Procedure: as §1

Compound | exposure time to complete kill (Staphylococcus aureus) [min] | exposure time to complete kill (Pseudomonas aeruginosa) [min] | exposure time to complete kill (Candida albicans) [min] | Number of Microbial Colonies (Staphylococcus aureus; exposure 0.5 minutes) | Number of Microbial Colonies (Staphylococcus aureus; exposure 1 minute) | Number of Microbial Colonies (Staphylococcus aureus; exposure 5 minutes) | Number of Microbial Colonies (Candida albicans; exposure 0.5 minutes) | Number of Microbial Colonies (Candida albicans; exposure 1 minute) | Number of Microbial Colonies (Candida albicans; exposure 5 minutes)
CCCCC(CC)CNC(=N)NC(=N)NCCCCCCNC(=N)NC(=N)NCC(CC)CCCC (stereo not drawn) [Alexidine] | 0.5 to 1 | 0.5 to 1 | 0.5 to 1 | – | – | – | – | – | –
[H]/N=C(\N/C(=N/[H])NCCCCCCNC(=N)NC(=N)Nc1ccc(Cl)cc1)Nc1ccc(Cl)cc1 [Chlorhexidine] | 60 | 5 | 60 | TNTC | TNTC | TNTC | TNTC | TNTC | TNTC
